ChEMBL document CHEMBL3044907, “Sensitivity of Fusarium verticillioides isolates from rice to a novel cyanoacrylate fungicide” (Crop Prot, 2012)
Converted amounts (≈) assume the structure as drawn.

Legend:
[1] = system: Fusarium verticillioides; assay: (§1) Fungicidal activity against Fusarium verticilliodes isolate YZ04 in rice seeds harvested from bakane diseased plants assessed as number of seedlings abnormally elongated or exhibiting symptoms of damping-off at 8.33 ug/ml at 30 degC incubated for 72 hr measured after 3 days under greenhouse trials (reference value: 44.2%); format: functional
[2] = system: Fusarium verticillioides; assay: as §1, with “JS09” for “YZ04”, “32.6%)” for “44.2%)”; format: functional
[3] = system: Fusarium verticillioides; assay: as §1, with “JS08” for “YZ04”, “13.0%)” for “44.2%)”; format: functional
[4] = system: Fusarium verticillioides; assay: as §1, with “N06” for “YZ04”, “25” for “8.33”, “9.6%)” for “44.2%)”; format: functional
[5] = system: Fusarium verticillioides; assay: as §1, with “YZ22” for “YZ04”, “25” for “8.33”, “22.5%)” for “44.2%)”; format: functional
[6] = system: Fusarium verticillioides; assay: as §1, with “YZ12” for “YZ04”, “25” for “8.33”, “45.8%)” for “44.2%)”; format: functional
[7] = system: Fusarium verticillioides; assay: as §1, with “YZ10” for “YZ04”, “25” for “8.33”, “49.2%)” for “44.2%)”; format: functional
[8] = system: Fusarium verticillioides; assay: as §1, with “YZ07” for “YZ04”, “25” for “8.33”, “43.2%)” for “44.2%)”; format: functional
[9] = system: Fusarium verticillioides; assay: as §1, with “YZ06” for “YZ04”, “25” for “8.33”, “45.3%)” for “44.2%)”; format: functional
[10] = system: Fusarium verticillioides; assay: Fungicidal activity against Fusarium verticilliodes in rice seeds harvested from bakane diseased plants assessed as mycelial growth inhibition at 25 degC after 3 to 5 days; format: functional, organism-based
[11] = system: Fusarium verticillioides; assay: as §1, with “JS07” for “YZ04”, “6.25” for “8.33”, “33.8%)” for “44.2%)”; format: functional
[12] = system: Fusarium verticillioides; assay: as §1, with “N03” for “YZ04”, “6.25” for “8.33”, “36.1%)” for “44.2%)”; format: functional
[13] = system: Fusarium verticillioides; assay: as §1, with “YZ22” for “YZ04”, “6.25” for “8.33”, “22.5%)” for “44.2%)”; format: functional
[14] = system: Fusarium verticillioides; assay: as §1, with “6.25” for “8.33”; format: functional
[15] = system: Fusarium verticillioides; assay: as §1, with “JS07” for “YZ04”, “12.5” for “8.33”, “33.8%)” for “44.2%)”; format: functional
[16] = system: Fusarium verticillioides; assay: as §1, with “JS06” for “YZ04”, “12.5” for “8.33”, “25.2%)” for “44.2%)”; format: functional
[17] = system: Fusarium verticillioides; assay: as §1, with “JS05” for “YZ04”, “12.5” for “8.33”, “36.4%)” for “44.2%)”; format: functional
[18] = system: Fusarium verticillioides; assay: as §1, with “JS02” for “YZ04”, “12.5” for “8.33”, “24.9%)” for “44.2%)”; format: functional
[19] = system: Fusarium verticillioides; assay: as §1, with “N04” for “YZ04”, “12.5” for “8.33”, “14.5%)” for “44.2%)”; format: functional
[20] = system: Fusarium verticillioides; assay: as §1, with “N03” for “YZ04”, “12.5” for “8.33”, “36.1%)” for “44.2%)”; format: functional
[21] = system: Fusarium verticillioides; assay: as §1, with “N02” for “YZ04”, “12.5” for “8.33”, “41.2%)” for “44.2%)”; format: functional
[22] = system: Fusarium verticillioides; assay: as §1, with “JS09” for “YZ04”, “25” for “8.33”, “32.6%)” for “44.2%)”; format: functional
[23] = system: Fusarium verticillioides; assay: as §1, with “JS05” for “YZ04”, “36.4%)” for “44.2%)”; format: functional
[24] = system: Fusarium verticillioides; assay: as §1, with “JS03” for “YZ04”, “15.8%)” for “44.2%)”; format: functional
[25] = system: Fusarium verticillioides; assay: as §1, with “N05” for “YZ04”, “6.2%)” for “44.2%)”; format: functional
[26] = system: Fusarium verticillioides; assay: as §1, with “N03” for “YZ04”, “36.1%)” for “44.2%)”; format: functional
[27] = system: Fusarium verticillioides; assay: as §1, with “YZ26” for “YZ04”, “49.3%)” for “44.2%)”; format: functional
[28] = system: Fusarium verticillioides; assay: as §1, with “YZ09” for “YZ04”, “12.5” for “8.33”, “17.5%)” for “44.2%)”; format: functional
[29] = system: Fusarium verticillioides; assay: as §1, with “YZ07” for “YZ04”, “12.5” for “8.33”, “43.2%)” for “44.2%)”; format: functional
[30] = system: Oryza sativa; assay: Effect on germination of healthy Oryza sativa (rice) seed cultivar Liangyou 6326 at 6.25 to 25 ug/ml at 25 degC after 72 hr; format: ADME, organism-based; conditions: in vivo
[31] = system: Oryza sativa; assay: Effect on germination of healthy Oryza sativa (rice) seed cultivar Xinliangyou 6 at 6.25 to 25 ug/ml at 25 degC after 72 hr; format: ADME, organism-based; conditions: in vivo
[32] = system: Fusarium verticillioides; assay: as §1, with “YZ07” for “YZ04”, “43.2%)” for “44.2%)”; format: functional
[33] = system: Fusarium verticillioides; assay: as §1, with “JS05” for “YZ04”, “6.25” for “8.33”, “36.4%)” for “44.2%)”; format: functional
[34] = system: Fusarium verticillioides; assay: as §1, with “JS02” for “YZ04”, “6.25” for “8.33”, “24.9%)” for “44.2%)”; format: functional
[35] = system: Fusarium verticillioides; assay: as §1, with “JS01” for “YZ04”, “6.25” for “8.33”, “32.5%)” for “44.2%)”; format: functional
[36] = system: Fusarium verticillioides; assay: as §1, with “N06” for “YZ04”, “6.25” for “8.33”, “9.6%)” for “44.2%)”; format: functional
[37] = system: Fusarium verticillioides; assay: as §1, with “N04” for “YZ04”, “6.25” for “8.33”, “14.5%)” for “44.2%)”; format: functional

`CCOC(=O)/C(C#N)=C(/N)c1ccccc1` was tested, and the Activity [1] was 0%, the Activity [2] was 1.2% and the Activity [3] was 0%. It also gave an Activity [4] of 0%, an Activity [5] of 0% and an Activity [6] of 0%. For the same compound, the Activity [7] was 0%, the Activity [8] was 0% and the Activity [9] was 0%. It also gave an EC50 [10] of 0.379 µg/mL (≈ 1.75 µM), an Activity [11] of 1.3% and an Activity [12] of 0.5%. It also gave an Activity [13] of 2.7%, an Activity [14] of 1.3% and an Activity [15] of 0%. It also gave an Activity [16] of 0%, an Activity [17] of 0% and an Activity [18] of 0%. It also gave an Activity [19] of 0%, an Activity [20] of 0% and an Activity [21] of 0%. The Activity [22] was 0%, the Activity [23] was 0.2% and the Activity [24] was 0%. It also gave an Activity [25] of 0%, an Activity [26] of 0% and an Activity [27] of 1.2%. The Activity [28] was 0%, the Activity [29] was 0% and the Activity [30] was “Non-toxic”. The Activity [31] was “Non-toxic”, the Activity [32] was 0% and the Activity [33] was 2.8%. It also gave an Activity [34] of 2%, an Activity [35] of 1.6% and an Activity [36] of 0.8%. For the same compound, the Activity [37] was 1.8%.
